Earlier results as cited in publication PMC12491383, “Organ and tumour dosimetry of ^177Lu-rhPSMA-10.1, a novel PSMA-targeted therapy: results from a Phase I trial” (European Journal of Nuclear Medicine and Molecular Imaging, 2025).

Legend:
[1] = set-up: method as in PMID 38050121; conditions: cited from earlier work
[2] = set-up: method as in PMID 34887335; conditions: reported data; cited from earlier work

O=C([O-])CN1CCN(CC(=O)[O-])CCN(CC(=O)NCC2CCC(C(=O)N[C@@H](Cc3ccc4ccccc4c3)C(=O)NCCCC[C@H](NC(=O)N[C@@H](CCC(=O)O)C(=O)O)C(=O)O)CC2)CCN(CC(=O)[O-])CC1.[177Lu+3] (stereo partly shown) [^177Lu-PSMA-617, lutetium Lu 177 vipivotide tetraxetan]
Absorbed dose to the bone marrow ([1]; VISION dosimetry substudy): 0.035 Gy/GBq
Absorbed dose in the salivary glands ([1]; VISION substudy): 0.63 Gy/GBq
Absorbed dose in the kidneys ([1]; dosimetry substudy of the Phase III VISION trial): 0.43 Gy/GBq
Tumour effective half-life [2]: 61 h
